Where two headings read alike, the source gives them in different places.
Key:
[1] = Tolerance / toxicity in sheep; type: in vivo; set-up: key to Tolerance at 100 mg/kg / Tolerance at 50 mg/kg: "toxic" refers to death of sheep resulting from the use of the indicated compound at the indicated dosage; key to Tolerance: Tol.: tolerated; Tox.: toxic; Sym.: symptoms of toxic reaction; details: in vivo, Table 1, read-out: Tolerance, highest test dosage at which the sheep developed no toxic symptoms
Procedure: (§1) The results of tests on sheep in a manner described, supra, using compounds of the present invention are given in Table 1, Examples 5 through 13. The numbers in the column headed "Haemonchus (15 mg/kg)" refer to the percent of parasites destroyed or expelled when the indicated compound was introduced into the rumen of sheep at a dosage of 15 milligrams per kilogram of body weight. The values under "Tolerance (mg/kg)" refer to the highest test dosage in the milligrams of anthelmintic per kilogram of body weight at which the sheep developed no toxic symptoms. "Tol." is an abbreviation for "tolerated". The symbols R1 and R2 refer to those of Formula I in these and other following examples.
(§2) The importance of the 2',4' substitution on the anilide moiety of Formula I is illustrated by the case of the dichloro substitution as summarized in Table III. […] This has been mentioned briefly hereinabove. As used herein, "toxic" refers to death of sheep resulting from the use of the indicated compound at the indicated dosage.
(§3) The data of the tables were generated using procedures previously described. The compounds tested are disubstituted and, except for Example 50 which is dibromo, are dichloro. Where the position for the substituents is other than 2' and 4', it is indicated. Under the indicated microorganisms, the values given in this and the following tables, should be read as: percentage of microorganism killed/dose in milligrams per kilogram of body weight. Under "Tolerance", the term "Tol." means "tolerated", "Tox." means "toxic", and "Sym." means "symptoms of toxic reaction", all at the dosage value which follows. It will be appreciated that there is no sharp toxicity end point in determining toxicity to living sheep.

[2] = test system: sheep; assay: Tolerance / toxicity in sheep; type: in vivo; set-up: key to Tolerance at 100 mg/kg / Tolerance at 50 mg/kg: "toxic" refers to death of sheep resulting from the use of the indicated compound at the indicated dosage; key to Tolerance: Tol.: tolerated; Tox.: toxic; Sym.: symptoms of toxic reaction; details: for Tolerance at 50 mg/kg / Tolerance at 100 mg/kg: Tables III and IV
Procedure: as §1, §2, §3

[3] = test system: Fasciola hepatica; assay: Test for activity against liver flukes, Fasciola hepatica, in infected sheep; type: in vivo; details: for inhibition in vivo at 1 mg/kg: Tables VIII and X
Procedure: (§4) Test for activity against liver flukes were conducted as follows:
(§5) Eggs of Fasciola hepatica were collected from the bile of donor sheep. The eggs were embryonated and snails were infected (the genus Lymnaea serves as intermediate host) to produce Metacercariae which are the infective forms for sheep. Each sheep was infected with 250 metacercariae intraruminally. When the infection became patent in ca. 80 days, egg counts were carried out to determine the degree of worm burden. The liver was processed to recover F. hepatica in the untreated and treated sheep.
as §3

[4] = test system: liver flukes of the genus Fasciola; assay: Utility against liver flukes of the genus Fasciola in sheep (oral); type: in vivo; details: for effect against (mature) liver flukes: oral, 5 mg/kg, within three days; for effect against liver flukes: 15 mg/kg
Procedure: as §4, §5
The compounds of this invention also have utility against liver flukes.

[5] = test system: Haemonchus contortus; assay: Percent of Haemonchus destroyed or expelled in infected sheep (egg count after treatment); type: in vivo, Haemonchus contortus (in sheep); details: for Effectiveness at 15 mg/kg against Haemonchus: Table VI; for effective in killing or expelling Haemonchus: dose not given; for Haemonchus (2 mg/kg), percent of parasites destroyed or expelled / Haemonchus (15 mg/kg), percent of parasites destroyed or expelled / Haemonchus (5 mg/kg), percent of parasites destroyed or expelled: into rumen, Table 1
Procedure: Two groups of sheep were used in the tests. One group was used as a non-medicated control, while the other group was treated with the compound under investigation. Helminth-free young lambs were infected with about 10,000 filariform larvae of Haemonchus contortus. In three weeks when the infection became apparent, egg counts were made to determine the density of the worm burden.
The egg count was carried out using the following modified Stoll method. Three grams of sheep feces were taken rectally from each animal and placed in a Stoll flask. To each flask, tap water was added to the top line. The fecal pellets were too hard to break down, the flasks were closed with rubber stoppers and kept in the refrigerator for several hours. The flasks were thoroughly shaken and a 1 ml. sample was drawn from the middle using a wide mouth pipette. This 1 ml. sample was transferred to an 8 ml. plastic tube, to which enough saturated sodium chloride solution was added to reach the rim. The tubes were then centrifuged for 10 minutes at 1500 r.p.m. Then sodium chloride solution was added with a medicine dropper forming a concave miniscus. A cover glass was carefully added and the tubes were kept in a refrigerator for ten to twenty minutes. During that period, the nematode ova flowed upward and adhered to the bottom of the cover glass slip. At the end of the 20-minute period, the cover slip was carefully detached from the miniscus and transferred to a microscopic slide. The ova were then counted under a microscope equipped with 10X ocular and 10X objective lens. Each ovum under the microscope represented 20 ova in the sample.
Animals with sufficiently high egg counts were taken out of the pool and housed in experimental pens. Since the salicylanilides of the present invention are water insoluble, the compounds were first ground using a mortar and pestle and then were placed in a carboxymethyl cellulose solution. The particles were further micronized ultrasonically. The compound was then administered to two or three animals by Oesophageal gavage. Control, untreated animals, received only the carboxymethyl cellulose solution in a similar manner. On the sixth and seventh day after treatment, fecal pellets were taken from the rectum of the control as well as the treated animals and egg counts were made.
as §1, §3

[6] = test system: Haemonchus and Fasciola hepatica; assay: Dual activity against Haemonchus and Fasciola in sheep and therapeutic ratio; type: in vivo; details: sheep; for dual activity relative to other isomers, in words: Table IX, listed as methyl 2'; for overall activity ranking, in words: Table X
[7] = Fasciola hepatica, read-out: Fasciola hepatica, percentage of microorganism killed
[8] = Fasciola hepatica, sheep, read-out: Fasciola hepatica, percentage of microorganism killed
[9] = Fasciola hepatica, sheep, 2 mg/kg, Tables VIII-XI, read-out: Fasciola hepatica, percentage of microorganism killed
[10] = Haemonchus contortus, iv, sheep, 15 mg/kg, Tables III and IV, read-out: Effectiveness (%) at 15 mg/kg
[11] = Haemonchus contortus, sheep, Tables VIII-XI, read-out: Haemonchus, percentage of microorganism killed
[12] = Haemonchus contortus, sheep, 5 mg/kg, Tables VIII-XI, read-out: Haemonchus, percentage of microorganism killed
[13] = sheep, 5 mg/kg, Tables III and IV
[14] = Fasciola hepatica, sheep, 5 mg/kg, Tables VIII-XI, read-out: Fasciola hepatica, percentage of microorganism killed
[15] = Haemonchus contortus, sheep, 15 mg/kg, Tables VIII-XI, read-out: Haemonchus, percentage of microorganism killed
[16] = Fasciola hepatica, sheep, Tables VIII-XI, read-out: Fasciola hepatica, percentage of microorganism killed

SMILES	NOAEL [1] [mg/kg]	Tolerance ([2]; 50 mg./kg., Tables VIII-X)	Tolerance at 50 mg/kg [2]	Tolerance ([2]; 100 mg./kg., Tables VIII, IX)	Tolerance at 100 mg/kg [2]	inhibition in vivo at 1 mg/kg [3, 8] [%]	inhibition in vivo at 2 mg/kg [3, 9] [%]	effect against (mature) liver flukes [4]	inhibition in vivo at 15 mg/kg [5, 10] [%]	inhibition in vivo at 2 mg/kg [5, 11] [%]	inhibition in vivo at 5 mg/kg [5, 12] [%]	Effectiveness (%) at 5 mg/kg [5, 13] [%]	Effectiveness at 15 mg/kg against Haemonchus ([5]; sheep, 15 mg/kg) [%]	effective in killing or expelling Haemonchus ([5]; sheep) [%]	Haemonchus (2 mg/kg), percent of parasites destroyed or expelled ([5]; sheep) [%]	Haemonchus (15 mg/kg), percent of parasites destroyed or expelled ([5]; sheep, 15 mg/kg) [%]	Tolerance ([2]; 25 mg./kg., Tables IX, X)	inhibition in vivo at 5 mg/kg [3, 14] [%]	inhibition in vivo at 15 mg/kg [5, 15] [%]	inhibition in vivo at 15 mg/kg [3, 16] [%]	also measured
Cc1c([N+](=O)[O-])cc(C(C)(C)C)c(O)c1C(=O)Nc1ccc(Cl)cc1Cl [Example 5, 3-tert. butyl-2', 4'-dichloro-6-methyl-5-nitrosalicylanilide]	50 to 100	Tol.	nontoxic	Sym.	toxic	44	99	completely destroyed all flukes	100	14	100	100	100	100	14	100	–	–	–	–	inhibition in vivo at 5 mg/kg [3, 7]: 100%; dose ratio: times less than the dose at which the 2',5' dichloro compound had no activity (Fasciola) ([3]; sheep): 2.5 times; effective against Fasciola ([3]; sheep, dose 2.5 times less than that at which the 2',5' dichloro compound had no activity): 99%; inhibition in vivo at 15 mg/kg ([5]; Haemonchus contortus, read-out: Haemonchus, percentage of microorganism killed, sheep, 15 mg/kg, Tables VIII-XI): 100%; activity at 5 mg./kg. ([5]; sheep, 5 mg/kg): 100%; dual activity against both Haemonchus and Fasciola ([6]; 5 mg./kg.): 100%
Cc1cc(Cl)ccc1NC(=O)c1c(C)c([N+](=O)[O-])cc(C(C)(C)C)c1O [Example 6, 3-tert. butyl-4'-chloro-2', 6-dimethyl-5-nitrosalicylanilide]	50 to 100	Sym.	non toxic	Tox.	toxic	–	–	The same effects against mature flukes	100	67	–	95	100	100	67	100	Tol.	100	100	–	inhibition in vivo at 2 mg/kg [3, 7]: 0%; inhibition in vivo at 5 mg/kg ([5]; Haemonchus contortus, read-out: Haemonchus, percentage of microorganism killed, sheep, 5 mg/kg, Tables VIII-XI): 99%; activity against Haemonchus relative to other isomers, in words ([5]; sheep): greater activity against Haemonchus; dual activity relative to other isomers, in words ([6]; chloro 4' compound): much greater dual activity; dual activity relative to other isomers, in words ([6]; chloro 4' isomer): very active at doses well below those at which other isomers are inactive
Cc1c([N+](=O)[O-])cc(C(C)(C)C)c(O)c1C(=O)Nc1ccc(C(F)(F)F)cc1 [Example 10, 3-tert. butyl-6-methyl-5-nitro-4'-trifluoromethylsalicylanilide]	15 to 50	–	–	–	–	–	–	–	–	–	–	–	–	–	–	100	–	–	100	100	effect against liver flukes [4]: efficacious; inhibition in vivo at 15 mg/kg ([5]; Haemonchus contortus, sheep, 15 mg/kg, Table V, read-out: Effectiveness at 15 mg/kg against Haemonchus): 100%
Cc1c([N+](=O)[O-])cc(C(C)(C)C)c(O)c1C(=O)Nc1ccc(Br)cc1C(F)(F)F [Example 11]	≥ 20	–	–	–	–	100	100	–	–	99.8	100	–	–	–	99.8	–	–	100	–	–	Tolerance ([2]; 20 mg./kg., Table X): Tol.; Tolerance ([2]; 35 mg./kg., Table X): Tol.; Tolerance, highest test dosage at which the sheep developed no toxic symptoms ([2]; Table 1, listed as 12): ≥ 35 mg/kg; inhibition in vivo at 0.5 mg/kg ([3]; Fasciola hepatica, sheep, 0.5 mg/kg, Table X, read-out: Fasciola hepatica, percentage of microorganism killed): 97%; Haemonchus (5 mg/kg), percent of parasites destroyed or expelled ([5]; sheep, 5 mg/kg): 100%; overall activity ranking, in words [6]: most active compounds of the invention
Cc1c([N+](=O)[O-])cc(C(C)(C)C)c(O)c1C(=O)Nc1ccc(Cl)cc1C(F)(F)F [Example 13]	≥ 15	Tox.	–	–	–	100	100	–	–	96	91	–	–	–	96	100	Tox.	–	100	–	Tolerance ([2]; 15 mg./kg., Tables VIII, X): Tol.; inhibition in vivo at 1 mg/kg ([5]; Haemonchus contortus, sheep, 1 mg/kg, Table X, read-out: Haemonchus, percentage of microorganism killed): 76%; Haemonchus (5 mg/kg), percent of parasites destroyed or expelled ([5]; sheep, 5 mg/kg): 91%; overall activity ranking, in words [6]: most active compounds of the invention
Cc1c(Cl)cccc1NC(=O)c1c(C)c([N+](=O)[O-])cc(C(C)(C)C)c1O [Example 28, 3-tert. butyl-3'-chloro 2', 6-dimethyl-5-nitrosalicylanilide]	–	Tox.	toxic	–	–	–	–	–	87	–	–	–	–	–	–	–	–	–	87	0	effect against liver flukes [4]: ineffective against liver flukes
